# According to patent publication US20140010901A1, “BLEOMYCIN HYDROLASE PRODUCTION PROMOTOR” (Shiseido Company, Ltd., priority 2011, published 2014):
# Entries after “also recorded” stand apart in the source; their conditions may differ.
# Assays:
# bleomycin hydrolase [1] = assay: Screening for bleomycin hydrolase production promoting effects (RT-PCR, cultured human keratinocytes); assay type: cell-based; conditions: for expression of bleomycin hydrolase in comparison with the control: 50 μg/ml, human keratinocytes, 24 hours, control 0.1% 1,3-butylene glycol, FIG. 24; for production of bleomycin hydrolase, concentration dependence: general statement in description
# Protocol: Human keratinocytes derived from normal foreskin (Cascade Biologics Inc., Portland, Md.) were cultured for 24 hours at […] in the presence of each of the herbal medicine extracts or pharmaceutical agents ([…] to 50 μg/ml) shown in FIG. 24 in keratinocyte growth medium consisting of MCDB medium supplemented with epidermal growth factor (0.1 ng/ml), insulin (10 μg/ml), hydrocortisone (0.5 μg/ml), bovine pituitary extract (0.4%), gentamycin (50 μg/ml) and amphotericin B (50 ng/ml). 0.1% 1,3-butylene glycol was used as a control.
# Total RNA (500 ng) isolated from the human keratinocytes cultured in the manner described above was reverse-transcribed using random hexamers and Superscript II RNase H-transcriptase (Gibco-BRL Corp., Gaithersburg, Md.), followed by subjecting to PCR amplification using Taq DNA polymerase (Takara Corp., Kyoto, Japan) and the following primers. 40 amplification cycles were carried out consisting of 30 seconds at 94° C., 1 minute at 60° C. and 1 minute at 72° C.
# The primers used in PCR are indicated below.
# bleomycin hydrolase [2] = assay: Effect of cytokines on bleomycin hydrolase mRNA expression, quantitative PCR (Experiment 5, FIG. 14); assay type: cell-based, human; conditions: keratinocytes in the proliferation stage, 24 hours, IL-4 and TNFα 0.1-10 ng/ml, IFNγ 1.0-100 ng/ml
# Protocol: (§1) Normal human epidermal keratinocytes derived from neonatal epidermis (Kurabo Industries, Ltd., Osaka, Japan) were cultured in EpiLife medium (Cascade Biologics, Inc., Portland, Oreg.) containing low-concentration (0.03 mM) calcium and HKGS Growth Supplement (Cascade Biologics, Inc.). All cells were incubated at 37° C. in the presence of 5% CO2 and were used within 4 passages of subculturing. Cells were collected at 70% confluence, 100% confluence, 2 days after reaching confluence, and 2 days after reaching confluence in 2 mM calcium.
# The expression level of bleomycin hydrolase in keratinocytes was measured by quantitative PCR according to the following method using Light Cycler 480 (Roche Diagnostics GmbH, Mannheim, Germany). Light Cycler FastStart DNA Master CYBR Green I was used for the reagent. 0.6 μl aliquots of each of the following bleomycin hydrolase primers and 6.8 μl of water were added to 10 μl of SYBR Green I Master Mix followed by bringing to a total volume of 20 μl and carrying out PCR for 45 cycles consisting of 15 seconds at 95° C., 20 seconds at 55° C. and 20 seconds at 72° C. The results obtained were corrected by comparing with the results for a housekeeping gene, G3PDH.
# IL-4 (final concentration: 0.1, 1.0 or 10 ng/ml), TNFα (final concentration: 0.1, 1.0 or 10 ng/ml) and IFNγ (final concentration: 1.0, 10 or 100 ng/ml) were respectively added to cultured keratinocytes in the proliferation stage, and after incubating for 24 hours, RNA was collected using Isogen. Expression of bleomycin hydrolase mRNA was measured by quantitative PCR. Based on the results shown in FIG. 14, a type of cytokine, interleukin-4 (IL-4) can be understood to down-regulate expression of bleomycin hydrolase.
# BH gene = assay: Cytokine-mediated regulation of BH gene expression, real-time RT-PCR (Experiment 6, FIG. 20A); assay type: cell-based, human; conditions: proliferating keratinocytes, 24 hours of incubation
# Protocol: as §1
# (§2) Transcription levels of BH and related factors were analyzed by quantitative real-time RT-PCR. Total RNA was extracted from cultured cells using Isogen (Nippon Gene Co., Ltd., Tokyo, Japan) in accordance with the instructions provided by the manufacturer. Reverse transcription of cDNA was carried out using SuperScript™ II (Invitrogen Corp., Carlsbad, Calif.). Real-time RT-PCR was carried out with the Light Cycler Raid Cycler System using the Light Cycler 480 SYBR Green I Master Mix (Roche Diagnostics GmbH) in accordance with the instructions provided by the manufacturer. Glyceraldehyde 3-phosphate dehydrogenase (GAPDH) was used as a housekeeping gene. Specificity of the amplified fragments was confirmed by quantitative analysis of melting curves by Light Cycler analytical software. The amounts of mRNA were standardized with respect to GAPDH mRNA, and finally indicated as a ratio to the mRNA of an untreated control.
# Since BH is an NMF-producing enzyme, it has the possibility of being involved in the pathophysiology of AD. Accordingly, an investigation was conducted of the effects of Th1, Th2 and Th17 cytokines on BH gene expression. […] Similar results were obtained with differentiated keratinocytes (data not shown). In order to clarify the role of IFN-γ in the regulation of BH gene expression, a promoter assay was carried out to identify cytokine response elements. […] IFN-γ no longer suppressed promoter activity after this sequence was deleted (FIG. 20B). […]
# BH promoter = BH promoter luciferase assay in transfected cultured keratinocytes (FIG. 20B); assay type: cell-based, human; conditions: keratinocytes transfected with pGL3-BH-616 containing IRF-1/2 binding sites, 24 hours
# Protocol: Keratinocytes were cultured in a 12-well tissue culture plate at a density of 5×10^4 cells/well followed by transfection with 1 μg aliquots of each construct using FuGene HD Transfection Reagent (Roche Diagnostics AG, Basel, Switzerland). In order to correct for transfection efficiency, all cells were simultaneously transfected with pGL4.74 [hRluc-TK] vector (Promega Co.) containing sea pansy (Renilla) luciferase gene under the control of HSV-TK promoter. Unless specifically indicated otherwise, the cells were collected 24 hours after transfection and lysed using […] of Passive Lysis Buffer (Promega Co.) per well. Luciferase activity was analyzed using the Dual Luciferase Reporter Assay System (Promega Co.) and Auto Lumat Plus Luminoeter (Berthold Technologies GmbH, Bad Wilbad, Germany). Firefly luciferase activity was standardized for sea pansy luciferase activity. Three transfections were independently carried out for each construct and results were expressed as the mean value thereof.
# Since BH is an NMF-producing enzyme, it has the possibility of being involved in the pathophysiology of AD. Accordingly, an investigation was conducted of the effects of Th1, Th2 and Th17 cytokines on BH gene expression. […] Similar results were obtained with differentiated keratinocytes (data not shown). […]
# IRF-1 = assay: Effect of cytokines on IRF-1 mRNA expression in cultured keratinocytes (FIG. 22); assay type: cell-based, human
# Protocol: as §2
# (§3) An investigation was conducted of the cytokine-dependent regulation of these transcription factors.
# IRF-2 = assay: Effect of cytokines on IRF-2 mRNA expression in cultured keratinocytes (FIG. 22); assay type: cell-based, human
# Protocol: as §2, §3
# MZF-1 = assay: Effect of cytokines on MZF-1 expression in cultured keratinocytes (FIG. 22); assay type: cell-based, human; conditions: most effective at IL-4 10 ng/ml
# Protocol: as §2, §3
# Sp-1 = assay: Effect of cytokines on Sp-1 expression in cultured keratinocytes (FIG. 22); assay type: cell-based, human; conditions: most effective at IL-4 10 ng/ml
# Protocol: as §2, §3
# [3] = only at IL-4 100 ng/ml, FIG. 22B
Molecule,expression of bleomycin hydrolase in comparison with the control (bleomycin hydrolase [1]),"production of bleomycin hydrolase, concentration dependence (bleomycin hydrolase [1])",expression of bleomycin hydrolase mRNA (bleomycin hydrolase [2]),BH mRNA expression (BH gene),other results
"O=C(O)CCCNS(=O)(=O)c1ccccc1 [benzenesulfonyl GABA, benzenesulfonyl γ-aminobutyric acid]",significantly increase,concentration-dependently promotes production,–,–,–
OC[C@@H](O)[C@@H](O)CO [erythritol],significantly increase,concentration-dependently promotes production,–,–,–
"IFN-γ: Th1 cytokine, human IFN-γ purchased from Peprotech EC",–,–,significantly increases,dose-dependent down-regulation; also recorded: remarkably suppressed; also recorded: significantly decreases,"BH promoter activity (luciferase) (BH promoter): down-regulated; IRF-1 mRNA expression (IRF-1; IFN-γ treatment, FIG. 22A): potent dose-dependent up-regulation; IRF-2 expression (IRF-2; IFN-γ treatment, FIG. 22A): up-regulated"
"IL-4: Th2 cytokine, human IL-4 purchased from Peprotech EC",–,–,down-regulates,did not demonstrate any direct action whatsoever,expression of IRF-1 (IRF-1; [3]): significantly amplified; expression of IRF-2 (IRF-2; [3]): significantly amplified; expression of MZF-1 (MZF-1): down-regulated most effectively; also recorded: down-regulated; expression of Sp-1 (Sp-1): down-regulated most effectively; also recorded: down-regulated
"IL-13: Th2 cytokine, human IL-13 manufactured by R&D Systems Inc.",–,–,–,did not demonstrate any direct action whatsoever,–
TNFα,–,–,significantly increases,–,–
